Reference: ChEMBL document CHEMBL1201861, “Genomics of Drug Sensitity in Cancer screening data, Wellcome Trust Sanger Institute”
Values belong to the compound of their own block, whether it stands above or below them.

Key:
H9 = assay: cells; type: functional, cell-based, Homo sapiens; conditions: Homo sapiens, H9
Description: SANGER: Inhibition of human H9 cell growth in a cell viability assay.

CHP-134 = assay: SANGER: Inhibition of human CHP-134 cell growth in a cell viability assay.; type: functional, cell-based
DMS-53 = assay: cells; type: functional, cell-based, Homo sapiens; conditions: Homo sapiens, DMS-53;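 further: cell viability assay measuring growth inhibition of human DMS-53 cells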
Description: SANGER: Inhibition of human DMS-53 cell growth in a cell viability assay.

EW-7 = assay: SANGER: Inhibition of human EW-7 cell growth in a cell viability assay.; type: functional, cell-based; conditions: Homo sapiens, EW-7
RT-4 = assay: SANGER: Inhibition of human RT4 cell growth in a cell viability assay.; type: functional, cell-based; conditions: Homo sapiens, RT-4
SK-MEL-5 = assay: SANGER: Inhibition of human SK-MEL-5 cell growth in a cell viability assay.; type: functional, cell-based
SK-MG-1 = assay: SANGER: Inhibition of human SK-MG-1 cell growth in a cell viability assay.; type: functional, cell-based
Calu-1 = assay: SANGER: Inhibition of human Calu-1 cell growth in a cell viability assay.; type: functional, cell-based; conditions: Homo sapiens, Calu-1
Caov-3 cell line = assay: cells; type: functional, cell-based, Homo sapiens; conditions: Homo sapiens, Caov-3;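 further: cell growth inhibition read out by a viability assay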
Description: SANGER: Inhibition of human Caov-3 cell growth in a cell viability assay.

Caov-4 = assay: cells; type: functional, cell-based; conditions: Homo sapiens
Description: SANGER: Inhibition of human Caov-4 cell growth in a cell viability assay.

ECC12 = assay: cells; type: functional, cell-based; conditions: Homo sapiens
Description: SANGER: Inhibition of human ECC12 cell growth in a cell viability assay.

IPC-298 = assay: SANGER: Inhibition of human IPC-298 cell growth in a cell viability assay.; type: functional, cell-based; conditions: Homo sapiens, IPC-298
MDA-MB-468 = assay: cells; type: functional, cell-based, Homo sapiens; conditions: Homo sapiens, MDA-MB-468
Description: SANGER: Inhibition of human MDA-MB-468 cell growth in a cell viability assay.

MFE-296 = assay: SANGER: Inhibition of human MFE-296 cell growth in a cell viability assay.; type: functional, cell-based; conditions: Homo sapiens, MFE-296
NCI-H1618 = assay: cells; type: functional, cell-based, Homo sapiens; conditions: Homo sapiens, NCI-H1618;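 further: growth inhibition of human NCI-H1618 cells, measured by a cell viability assay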
Description: SANGER: Inhibition of human NCI-H1618 cell growth in a cell viability assay.

PLC-PRF-5 = assay: cells; type: functional, cell-based, Homo sapiens; conditions: Homo sapiens, PLC-PRF-5;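 further: growth inhibition of human PLC-PRF-5 cells, read out with a viability assay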
Description: SANGER: Inhibition of human PLC-PRF-5 cell growth in a cell viability assay.

SNG-M = assay: cells; type: functional, cell-based, Homo sapiens; conditions: Homo sapiens, SNG-M
Description: SANGER: Inhibition of human SNG-M cell growth in a cell viability assay.

SNU-475 = assay: cells; type: functional, cell-based, Homo sapiens; conditions: Homo sapiens, SNU-475
Description: SANGER: Inhibition of human SNU-475 cell growth in a cell viability assay.

C-4-II = assay: SANGER: Inhibition of human C-4-II cell growth in a cell viability assay.; type: functional, cell-based; conditions: Homo sapiens, C-4-II
TT = assay: cells; type: functional, cell-based, Homo sapiens; conditions: Homo sapiens, TT
Description: SANGER: Inhibition of human TT cell growth in a cell viability assay.

CCF-STTG1 = assay: cells; type: functional, cell-based, Homo sapiens; conditions: Homo sapiens, CCF-STTG1;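 further: growth inhibition of human CCF-STTG1 cells, determined with a cell viability read-out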
Description: SANGER: Inhibition of human CCF-STTG1 cell growth in a cell viability assay.

EW-12 = assay: SANGER: Inhibition of human EW-12 cell growth in a cell viability assay.; type: functional, cell-based
NCI-H378 = assay: SANGER: Inhibition of human NCI-H378 cell growth in a cell viability assay.; type: functional, cell-based
SKM-1 = assay: SANGER: Inhibition of human SKM-1 cell growth in a cell viability assay.; type: functional, cell-based
TC-YIK = assay: SANGER: Inhibition of human TC-YIK cell growth in a cell viability assay.; type: functional, cell-based

SMILES: COc1cc2c(Nc3ccc(NC(=O)c4ccccc4)cc3)ncnc2cc1OCCCN1CCOCC1
- IC50 (H9): 0.93 µM
- IC50 (CHP-134): 1.23 µM

- IC50 (DMS-53): 1.32 µM
- IC50 (SK-MEL-5): 0.0692 µM
- IC50 (SK-MG-1): 2.58 µM
SMILES: CC(C)c1ccccc1Cc1cc(C(=O)Nc2ccc(S(=O)(=O)c3ccccc3C(C)(C)C)cc2)c(O)c(O)c1O
- IC50 (EW-7): 0.167 µM
- IC50 (RT-4): 10.6 µM

SMILES: N#Cc1c(O)c2c(-c3ccc(-c4ccccc4O)cc3)csc2[nH]c1=O
- IC50 (Calu-1): > 1.02 µM
- IC50 (Caov-3 cell line): > 1.02 µM
- IC50 (Caov-4): > 1.02 µM
- IC50 (DMS-53): > 1.02 µM
- IC50 (ECC12): > 1.02 µM
- IC50 (EW-7): > 1.02 µM
- IC50 (IPC-298): > 1.02 µM
- IC50 (MDA-MB-468): > 1.02 µM
- IC50 (MFE-296): > 1.02 µM
- IC50 (NCI-H1618): > 1.02 µM
- IC50 (PLC-PRF-5): > 1.02 µM
- IC50 (RT-4): > 1.02 µM
- IC50 (SNG-M): > 1.02 µM
- IC50 (SNU-475): > 1.02 µM
- IC50 (C-4-II): > 1.02 µM
- IC50 (TT): > 1.02 µM
- IC50 (CCF-STTG1): > 1.02 µM

SMILES: CC(C)CCN1c2nc(Nc3cc(F)c(O)c(F)c3)ncc2N(C)C(=O)C1C (configuration not stated)
- IC50 (H9): 0.0602 µM
- IC50 (CHP-134): 3.49 µM

SMILES: COc1cc2ncn(-c3cc(OCc4ccccc4S(C)(=O)=O)c(C#N)s3)c2cc1OC [GSK-319347A]
- IC50 (ECC12): > 5 µM
- IC50 (EW-12): > 5 µM
- IC50 (NCI-H378): > 5 µM
- IC50 (SKM-1): > 5 µM
- IC50 (TC-YIK): > 5 µM

SMILES: CC1(C)CNc2cc(NC(=O)c3cccnc3NCc3ccncc3)ccc21 [MOTESANIB]
- IC50 (H9): > 2 µM
- IC50 (CHP-134): > 2 µM

SMILES: CCN(CC)CCCCNc1ncc2cc(-c3cc(OC)cc(OC)c3)c(NC(=O)NC(C)(C)C)nc2n1 [PD-173074]
- IC50 (H9): > 2 µM
- IC50 (CHP-134): > 2 µM

SMILES: Cn1cnc2c(F)c(Nc3ccc(Br)cc3Cl)c(C(=O)NOCCO)cc21 [SELUMETINIB]
- IC50 (H9): 0.0229 µM
- IC50 (CHP-134): > 4 µM
